Data set [1] is described as follows: 1-octanol-phosphate buffer apparent partition coefficient, log P of the compound at pH 7.4. The data set is classed as physicochemical.
Data set [2] is described as follows: Local anesthetic activity in desheathed frog sciatic nerve. The data set is classed as functional, tissue-based, Anura.
Data set [3] deals with Right cardiac atrium. Nature of the data set: Antiarrhythmic activity in guinea pig right atrium assessed as inhibition of ouabain-induced arrhythmia. The data set is classed as functional, Cavia porcellus.
The subject of data set [4] is Right cardiac atrium. In words: Negative chronotropic activity in guinea pig right atrium assessed as atrial rate at MEC after 30 mins. The class given is functional, tissue-based. As to conditions: Cavia porcellus.
For data set [5], the system named is Right cardiac atrium. In words: Negative inotropic activity in guinea pig right atrium assessed as contractile force at MEC after 30 mins. The data set is classed as functional, tissue-based. As to conditions: Cavia porcellus.
Data set [6] can be described thus: Apparent dissociation constant, pKa of the compound. The class given is physicochemical.
For data set [7], the target named is Beta-2 adrenergic receptor (Cavia porcellus, UniProt Q8K4Z4). Nature of the data set: Antagonist activity at beta-2 adrenergic receptor in guinea pig tracheal strip assessed as inhibition of isoprenaline-induced effect. The settings on record: read-out: pA2 (converted).
Data set [8] has as its target Beta-1 adrenergic receptor (Cavia porcellus, UniProt H0W3H1). In words: Antagonist activity at […] adrenergic receptor in guinea pig right atrium assessed as inhibition of isoprenaline-induced effect. Details: species or system Cardiac atrium.

Activity calls are given as the source filed them. The rule behind the calls is not given here.

By logD is commonly meant lipophilicity at a set pH, counting ionised and neutral species. The term pEC50 denotes the negative decadic logarithm of the EC50, by convention in mol/L. Higher therefore signals a low EC50. What is called pKa is the pH at which an ionisable group is half protonated. What is called pA2 is the negative logarithm of the molar antagonist concentration that doubles the agonist concentration needed for the same response.

Beta-1 adrenergic receptor, sequence (H0W3H1 1-470): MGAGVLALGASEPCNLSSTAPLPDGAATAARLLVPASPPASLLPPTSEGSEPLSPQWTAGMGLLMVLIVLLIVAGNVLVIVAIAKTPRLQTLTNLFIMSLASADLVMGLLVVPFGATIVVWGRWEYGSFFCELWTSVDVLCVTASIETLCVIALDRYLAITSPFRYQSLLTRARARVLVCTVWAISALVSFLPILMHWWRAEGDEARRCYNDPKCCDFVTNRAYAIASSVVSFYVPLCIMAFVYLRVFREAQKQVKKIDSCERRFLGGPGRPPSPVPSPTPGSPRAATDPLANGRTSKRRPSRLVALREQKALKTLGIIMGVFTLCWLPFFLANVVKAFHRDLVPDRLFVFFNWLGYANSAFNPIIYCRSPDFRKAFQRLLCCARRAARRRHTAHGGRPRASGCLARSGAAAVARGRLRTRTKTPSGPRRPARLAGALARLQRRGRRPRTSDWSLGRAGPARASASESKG
Beta-2 adrenergic receptor, sequence (Q8K4Z4 whole entry): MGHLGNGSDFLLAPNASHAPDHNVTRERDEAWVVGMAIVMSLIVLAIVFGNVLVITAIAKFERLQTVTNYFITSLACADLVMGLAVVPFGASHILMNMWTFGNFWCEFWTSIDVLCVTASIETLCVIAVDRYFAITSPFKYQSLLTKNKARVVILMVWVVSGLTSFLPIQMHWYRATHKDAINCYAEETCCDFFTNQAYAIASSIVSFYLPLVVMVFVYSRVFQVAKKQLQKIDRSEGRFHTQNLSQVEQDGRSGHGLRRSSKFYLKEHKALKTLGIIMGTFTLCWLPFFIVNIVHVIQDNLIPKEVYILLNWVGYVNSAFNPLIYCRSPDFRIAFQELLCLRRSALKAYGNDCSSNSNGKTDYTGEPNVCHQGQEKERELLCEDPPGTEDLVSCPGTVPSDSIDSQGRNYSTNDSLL

On to `Cc1cccc(OCC(O)CNC(C)C)c1OCC(O)CNC(C)C.Cl` (stereo not drawn), for which, in data set [1], the logD was -1.17. In data set [2], this molecule showed a pEC50 of 1.8. Moreover, the “-logMIC” value with Right cardiac atrium [3] worked out at 4.7. The result in the data set with Right cardiac atrium [4] and with Right cardiac atrium [5] was Active. Also, the pKa in data set [6] was 9.23.
For the molecule `CC(C)NCC(O)COc1ccccc1OCC(O)CNC(C)C` (stereo not drawn), the logD in data set [1] is -1.19. This molecule had a pEC50 in data set [2] of 1.29. For the same molecule, in the data set with Right cardiac atrium [3], the “-logMIC” value is given as 3.7. Besides, the outcome with Right cardiac atrium [4] and in the data set on Right cardiac atrium [5] was Active. The pKa in data set [6] was 9.22.
Take `CC(C)NCC(O)COc1cccc2ccccc12` (stereo not drawn): the outcome in the data set with Right cardiac atrium [4] and in the data set on Right cardiac atrium [5] was Active.
In the case of `Cc1ccc(OCC(O)CNC(C)C)c(OCC(O)CNC(C)C)c1.Cl` (stereo not drawn), the logD in data set [1] is -1.16. For the same molecule, the pEC50 in data set [2] is on record as 1.69. Also, in the data set on Right cardiac atrium [3], the “-logMIC” value was 4.3. The outcome with Right cardiac atrium [4] and with Right cardiac atrium [5] was Active. Besides, the pKa in data set [6] amounted to 9.24.
With `CC(C)NCC(O)COc1cc2ccccc2cc1OCC(O)CNC(C)C.Cl` (stereo not drawn), the Kb in data set [7] was 158 nM. For the same molecule, the logD in data set [1] was -0.81. In data set [2], this molecule displayed a pEC50 of 2.2. Also, the “-logMIC” value in the data set with Right cardiac atrium [3] is reported as 5.3. For the same molecule, the outcome with Right cardiac atrium [4] and in the data set on Right cardiac atrium [5] was Active. The pA2 in data set [8] is listed as 5.45. Also, the pKa in data set [6] amounted to 9.18.
For the molecule `CC(C)NCC(O)COc1ccc(C(C)C)cc1OCC(O)CNC(C)C.Cl` (stereo not drawn), the logD in data set [1] is -0.833. The molecule also returned a pEC50 in data set [2] of 2.07. Moreover, the “-logMIC” value with Right cardiac atrium [3] is given as 4.7. For the same molecule, the outcome in the data set on Right cardiac atrium [4] and in the data set with Right cardiac atrium [5] was Active. For the same molecule, the pKa in data set [6] is 9.3.
Take `CC(C)NCC(O)COc1cc2c(cc1OCC(O)CNC(C)C)CCCC2` (stereo not drawn): the Kb in data set [7] is 129 nM. In addition, the log distribution coefficient (logD) in data set [1] is -0.726. Moreover, the pEC50 in data set [2] was 2.02. For the same molecule, the “-logMIC” value in the data set with Right cardiac atrium [3] came out at 5. In addition, the outcome in the data set on Right cardiac atrium [4] and in the data set with Right cardiac atrium [5] was Active. Also, the pA2 in data set [8] was 5.83. Besides, the pKa in data set [6] is 9.17.
`CC(C)NCC(O)COc1cccc(C(C)C)c1OCC(O)CNC(C)C.Cl` (stereo not drawn): in data set [1], the logD is -0.747. This molecule had a pEC50 in data set [2] of 2. Besides, in the data set with Right cardiac atrium [3], the “-logMIC” value is recorded as 5. Also, the result with Right cardiac atrium [4] and with Right cardiac atrium [5] was Active. For the same molecule, the pKa in data set [6] was found to be 9.24.
